Read-outs that look alike come from different tables or passages of the source.
What was measured:
ERK2 = ERK2 (Homo sapiens, UniProt P28482); experiment: ERK2 inhibition assay (spectrophotometric coupled-enzyme assay); format: biochemical
Procedure: The IC50 was evaluated from the rate data as a function of inhibitor concentration. […] The compound numbers correspond to the compound numbers in Table 1.

GSK-3β (AA 1–420) = biological target: T1, GSK-3β (AA 1–420) (Homo sapiens, UniProt P49841); experiment: GSK-3 inhibition assay (coupled enzyme system); format: biochemical; conditions: read-out: GSK3 Inhibitory Activity (Ki class)
T1 construct: GSK-3β (AA 1–420)
T1 sequence (P49841 whole entry, species assumed, the tested form may be a part): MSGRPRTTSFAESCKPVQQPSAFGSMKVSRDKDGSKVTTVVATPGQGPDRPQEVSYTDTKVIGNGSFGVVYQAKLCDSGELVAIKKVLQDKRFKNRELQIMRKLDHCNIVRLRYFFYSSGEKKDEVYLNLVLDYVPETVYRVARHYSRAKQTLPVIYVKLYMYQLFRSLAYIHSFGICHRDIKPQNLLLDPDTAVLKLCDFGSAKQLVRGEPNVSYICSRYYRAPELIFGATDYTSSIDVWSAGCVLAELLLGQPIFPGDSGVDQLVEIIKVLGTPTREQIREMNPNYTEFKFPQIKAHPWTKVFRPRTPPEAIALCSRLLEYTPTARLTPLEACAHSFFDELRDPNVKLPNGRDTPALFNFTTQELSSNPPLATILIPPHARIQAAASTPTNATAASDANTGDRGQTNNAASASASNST
Procedure: Final substrate concentrations in the assay were 20 μM ATP (Sigma Chemicals, St Louis, Mo.) and 300 μM peptide (HSSPHQS(PO3H2)EDEEE, American Peptide, Sunnyvale, Calif.). Reactions were carried out at 30° C. and 20 nM GSK-3β. Final concentrations of the components of the coupled enzyme system were 2.5 mM phosphoenolpyruvate, 300 μM NADH, 30 μg/ml pyruvate kinase and 10 μg/ml lactate dehydrogenase.
An assay stock buffer solution was prepared containing all of the reagents listed above with the exception of ATP and the test compound of interest. The assay stock buffer'solution (175 μl) was incubated in a 96 well plate with 5 μl of the test compound of interest at final concentrations spanning 0.002 μM to 30 μM at 30° C. for 10 min. […] The reaction was initiated by the addition of 20 μl of ATP (final concentration 20 μM). Rates of reaction were obtained using a Molecular Devices Spectramax plate reader (Sunnyvale, Calif.) over 10 min at 30° C. The Ki values were determined from the rate data as a function of inhibitor concentration.
The compound numbers correspond to the compound numbers in Table 1.

[1] = read-out: ERK2 Inhibitory Activity (Ki class D-F)

ERK2, sequence (P28482 whole entry): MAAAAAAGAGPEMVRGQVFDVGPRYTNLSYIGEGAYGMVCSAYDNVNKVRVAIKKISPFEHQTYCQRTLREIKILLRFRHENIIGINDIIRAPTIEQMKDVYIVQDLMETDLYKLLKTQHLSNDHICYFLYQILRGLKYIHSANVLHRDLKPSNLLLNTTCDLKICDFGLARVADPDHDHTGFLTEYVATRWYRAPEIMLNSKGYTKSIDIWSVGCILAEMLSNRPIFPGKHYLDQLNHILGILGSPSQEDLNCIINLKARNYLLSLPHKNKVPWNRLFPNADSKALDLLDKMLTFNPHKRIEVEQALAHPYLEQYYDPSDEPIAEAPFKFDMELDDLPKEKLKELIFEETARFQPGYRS

| SMILES | Ki (ERK2; [1]) [µM] | Ki (GSK-3β (AA 1–420)) [µM] | Ki (ERK2; ERK2 Inhibitory Activity (Ki class D-F)) [µM] |
| --- | --- | --- | --- |
| CNc1ncc(C)c(-c2c[nH]c(C(=O)NC(CO)c3ccc(F)c(Cl)c3)c2)n1 (stereo not drawn) [III-a-134, 4-(5-Methyl-2-methylamino-pyrimidin-4-yl)-1H-pyrrole-2-carboxylic acid [1-(3-chloro-4-fluoro-phenyl)-2-hydroxy-ethyl]-amide] | < 0.1 | > 1 |  |
| O=C(NC(CO)c1ccccc1)c1cc(-c2nc(Nc3ccccc3)ncc2C2CC2)c[nH]1 (stereo not drawn) [III-a-144, 4-(5-Cyclopropyl-2-phenylamino-pyrimidin-4-yl)-1H-pyrrole-2-carboxylic acid (2-hydroxy-1-phenyl-ethyl)-amide] | 0.1 to 1 | > 1 |  |
| Cc1ccc(Nc2ncc(C)c(-c3c[nH]c(C(=O)NC(CO)c4ccccc4)c3)n2)cc1C (stereo not drawn) [III-a-151, 4-[2-(3,4-Dimethyl-phenylamino)-5-methyl-pyrimidin-4-yl]-1H-pyrrole-2-carboxylic acid (2-hydroxy-1-phenyl-ethyl)-amide] | < 0.1 | < 0.1 |  |
| Cc1cnc(NC(CO)c2ccccc2)nc1-c1c[nH]c(C(=O)NC(CO)c2ccccc2)c1 (stereo not drawn) [III-a-166, 4-[2-(2-Hydroxy-1-phenyl-ethylamino)-5-methyl-pyrimidin-4-yl]-1H-pyrrole-2-carboxylic acid (2-hydroxy-1-phenyl-ethyl)-amide] |  | > 1 | 0.1 to 1 |
| CCNc1ncc(C)c(-c2c[nH]c(C(=O)NC(CCO)c3ccccc3)c2)n1 (stereo not drawn) [III-a-172, 4-(2-Ethylamino-5-methyl-pyrimidin-4-yl)-1H-pyrrole-2-carboxylic acid (3-hydroxy-1-phenyl-propyl)-amide] | > 1 | > 1 |  |
| CCNc1ncc(C)c(-c2c[nH]c(C(=O)NC(CCO)c3ccccc3)c2)n1 (stereo not drawn) [III-a-173, 4-(2-Ethylamino-5-methyl-pyrimidin-4-yl)-1H-pyrrole-2-carboxylic acid (3-hydroxy-1-phenyl-propyl)-amide] | 0.1 to 1 | > 1 |  |
| Cc1cnc(NCCO)nc1-c1c[nH]c(C(=O)NC(CO)c2ccccc2)c1 (stereo not drawn) [III-a-175, 4-[2-(2-Hydroxy-ethylamino)-5-methyl-pyrimidin-4-yl]-1H-pyrrole-2-carboxylic acid (2-hydroxy-1-phenyl-ethyl)-amide] | < 0.1 | 0.1 to 1 |  |
| Cc1cnc(NC(C)CO)nc1-c1c[nH]c(C(=O)NC(CO)c2ccccc2)c1 (stereo not drawn) [III-a-176, 4-[2-(2-Hydroxy-1-methyl-ethylamino)-5-methyl-pyrimidin-4-yl]-1H-pyrrole-2-carboxylic acid (2-hydroxy-1-phenyl-ethyl)-amide] | < 0.1 | < 0.1 |  |
| Cc1cnc(NC2CCCCC2O)nc1-c1c[nH]c(C(=O)NC(CO)c2ccccc2)c1 (stereo not drawn) [III-a-179, 4-[2-(2-Hydroxy-cyclohexylamino)-5-methyl-pyrimidin-4-yl]-1H-pyrrole-2-carboxylic acid (2-hydroxy-1-phenyl-ethyl)-amide] | < 0.1 | < 0.1 |  |
| CCN(C(=O)c1cc(-c2ccnc(N)n2)c[nH]1)C(C)C(O)c1ccccc1 (stereo not drawn) [III-a-181, 4-(2-Amino-pyrimidin-4-yl)-1H-pyrrole-2-carboxylic acid (2-hydroxy-1-methyl-2-phenyl-ethyl)-ethyl-amide] |  | > 1 |  |
| CCNc1ncc(C)c(-c2c[nH]c(C(=O)NC(C(=O)OC)c3ccccc3)c2)n1 (stereo not drawn) [III-a-184, {[4-(2-Ethylamino-5-methyl-pyrimidin-4-yl)-1H-pyrrole-2-carbonyl]-amino}-phenyl-acetic acid methyl ester] | 0.1 to 1 | > 1 |  |
| CCNc1ncc(COC)c(-c2c[nH]c(C(=O)NC(CO)c3ccccc3)c2)n1 (stereo not drawn) [III-a-187, 4-(2-Ethylamino-5-methoxymethyl-pyrimidin-4-yl)-1H-pyrrole-2-carboxylic acid (2-hydroxy-1-phenyl-ethyl)-amide] |  | > 1 |  |
| CCNc1ncc(C)c(-c2c[nH]c(C(=O)NC(CO)c3cccnc3)c2)n1 (stereo not drawn) [III-a-188, 4-(2-Ethylamino-5-methyl-pyrimidin-4-yl)-1H-pyrrole-2-carboxylic acid (2-hydroxy-1-pyridin-3-yl-ethyl)-amide] | 0.1 to 1 | > 1 |  |

The next lines start with results.

| Ki (ERK2; [1]) [µM] | Ki (GSK-3β (AA 1–420)) [µM] | SMILES | Ki (ERK2; ERK2 Inhibitory Activity (Ki class D-F)) [µM] |
| --- | --- | --- | --- |
| < 0.1 | < 0.1 | Cc1ccc(C(CO)NC(=O)c2cc(-c3nc(Nc4ccccc4)ncc3C)c[nH]2)cc1F (stereo not drawn) [III-a-145, 4-(5-Methyl-2-phenylamino-pyrimidin-4-yl)-1H-pyrrole-2-carboxylic acid [1-(3-fluoro-4-methyl-phenyl)-2-hydroxy-ethyl]-amide] |  |
| < 0.1 | < 0.1 | Cc1ccc(C(CO)NC(=O)c2cc(-c3nc(Nc4cccc(F)c4)ncc3C)c[nH]2)cc1F (stereo not drawn) [III-a-147, 4-[2-(3-Fluoro-phenylamino)-5-methyl-pyrimidin-4-yl]-1H-pyrrole-2-carboxylic acid [1-(3-fluoro-4-methyl-phenyl)-2-hydroxy-ethyl]-amide] |  |
| < 0.1 | < 0.1 | Cc1cnc(NC(C)C)nc1-c1c[nH]c(C(=O)NC(CO)c2ccccc2)c1 (stereo not drawn) [III-a-153, 4-(2-Isopropylamino-5-methyl-pyrimidin-4-yl)-1H-pyrrole-2-carboxylic acid (2-hydroxy-1-phenyl-ethyl)-amide] |  |
| < 0.1 | < 0.1 | Cc1cnc(NCC(F)(F)F)nc1-c1c[nH]c(C(=O)NC(CO)c2ccccc2)c1 (stereo not drawn) [III-a-154, 4-[5-Methyl-2-(2,2,2-trifluoro-ethylamino)-pyrimidin-4-yl]-1H-pyrrole-2-carboxylic acid (2-hydroxy-1-phenyl-ethyl)-amide] |  |
| < 0.1 | < 0.1 | Cc1cnc(Nc2ccc(OC(F)(F)F)cc2)nc1-c1c[nH]c(C(=O)NC(CO)c2ccccc2)c1 (stereo not drawn) [III-a-157, 4-[5-Methyl-2-(4-trifluoromethoxy-phenylamino)-pyrimidin-4-yl]-1H-pyrrole-2-carboxylic acid (2-hydroxy-1-phenyl-ethyl)-amide] |  |
| < 0.1 | < 0.1 | Cc1cnc(NCC(C)C)nc1-c1c[nH]c(C(=O)NC(CO)c2ccccc2)c1 (stereo not drawn) [III-a-158, 4-(2-Isobutylamino-5-methyl-pyrimidin-4-yl)-1H-pyrrole-2-carboxylic acid (2-hydroxy-1-phenyl-ethyl)-amide] |  |
| < 0.1 | 0.1 to 1 | Cc1cnc(NCC(C)O)nc1-c1c[nH]c(C(=O)NC(CO)c2ccccc2)c1 (stereo not drawn) [III-a-177, 4-[2-(2-Hydroxy-propylamino)-5-methyl-pyrimidin-4-yl]-1H-pyrrole-2-carboxylic acid (2-hydroxy-1-phenyl-ethyl)-amide] |  |
| < 0.1 | 0.1 to 1 | Cc1cnc(NCC(C)O)nc1-c1c[nH]c(C(=O)NC(CO)c2ccccc2)c1 (stereo not drawn) [III-a-178, 4-[2-(2-Hydroxy-propylamino)-5-methyl-pyrimidin-4-yl]-1H-pyrrole-2-carboxylic acid (2-hydroxy-1-phenyl-ethyl)-amide] |  |
|  | < 0.1 | Cc1ccccc1Nc1ncc(C)c(-c2c[nH]c(C(=O)NC(CO)c3cccc(Cl)c3)c2)n1 (stereo not drawn) [III-a-224, 4-(5-Methyl-2-o-tolylamino-pyrimidin-4-yl)-1H-pyrrole-2-carboxylic acid [1-(3-chloro-phenyl)-2-hydroxy-ethyl]-amide] |  |
|  | < 0.1 | Cc1cnc(NN2CCOCC2)nc1-c1c[nH]c(C(=O)NC(CO)c2ccccc2)c1 (stereo not drawn) [III-a-228, 4-[5-Methyl-2-(morpholin-4-ylamino)-pyrimidin-4-yl]-1H-pyrrole-2-carboxylic acid (2-hydroxy-1-phenyl-ethyl)-amide] |  |

Reference: patent US7253187B2, “Heterocyclic inhibitors of ERK2 and uses thereof” (Vertex Pharmaceuticals Incorporated, priority 2001, dated 2007)
